viability, T/C and IC50 data for nine compounds are collected here from PubChem BioAssay AID1918956 (Molecular Pharmacology Branch, DTP, NCI, 2023).

Where “and” joins values, the source holds several entries; their conditions need not be identical. Equal values may be shown once.

The experiment deals with OVCAR-5 complex spheroids, viability. In words: Anticancer human tumor OVCAR-5 cell line growth inhibition.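 On all read-outs here: spheroids exposed to agents for seven days.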 Conditions: for viability, T/C: stronger effect = lower value; for IC50: curve of compound. The source says: Multicellular complex tumor spheroid response to LSD1 Inhibitor Iadademstat in combination with a variety of drugs and investigational agents in selected tumor cell lines
The current study was undertaken to assess response to LSD1 inhibitors in combination with standard-of-care drugs and investigational agents in solid tumor complex spheroid models as well as in the K-562 leukemia. Complex spheroids include a stromal component modeled by human endothelial cells (HUVEC) and fibroblasts modeled by human mesenchymal stem cells (MSCs). The concentration ranges selected for each drug and investigational agent were based upon clinically achievable concentrations if the clinical Cmax of the agent was known.
Compounds. The drugs and investigational agents used in this study are listed on Table 1. All of the agents used, including staurosporine (NSC755774) and gemcitabine (NSC613327), were obtained from the Developmental Therapeutics Program, NCI. FDA-approved anticancer drugs are available from the NCI at http://dtp.nci.nih.gov/branches/dscb/oncology_drugset_explanation.html. Drugs and investigational agents were >95% pure by proton nuclear magnetic resonance (NMR) and liquid chromatography/mass spectrometry (LC/MS). Stock solutions were prepared at 400x in DMSO, stored at -70 degrees C, and diluted in fresh medium prior to their use. The final concentration of DMSO in cell culture wells never exceeded 0.25% (v/v). The FDA-approved anticancer drug set is available from the Developmental Therapeutics Program at https://dtp.cancer.gov/organization/dscb/obtaining/available_plates.htm. All drugs and investigational agents were tested over a range starting from a high concentration at or near the clinical Cmax and decreasing in half-log increments. If the clinical Cmax for an agent had not been determined, the highest concentration tested was 10 microM.
Cell Lines. The patient-derived cancer cell (PDC) lines: 292921-168-R-J2-PDC, K24384-001-R-PDC, and 521955-158-R2-J5-PDC pancreatic carcinomas, 556581-035-R-J1 ovarian carcinoma, 324938-238-R-J1-PDC, 855422-203-R-J1-PDC and 883617-216-R-J1-PDC urothelial bladder carcinomas, 743489-274-T-PDC renal cell carcinoma, 138582-R-J1 Merkel cell tumor, K60290-347-R-J1 and K57222-313-R-J1-PDC glioblastomas, 653999-131-R-J2-PDC, LG0703-F948-PDC, and 349418-098-R-PDC non-small cell lung carcinomas, 885512-296-R-J2-PDC, 171881-019-R-J1-PDC breast carcinomas and 186277-243-T-J2-PDC and 233499-124-R-J2-PDC colon carcinomas were obtained from the NCI Patient-Derived Models Repository (PDMR, https://pdmr.cancer.gov). The established cell lines NCI/ADR-RES (RRID:CVCL_14520 and OVCAR-5 (RRID:CVCL_1628) ovarian carcinomas, 786-O (RRID:CVCL_1051) and A498 […] renal cell carcinoma, NCI-H211 (ATCC, cat. CRL-5824; RRID:CVCL_1529), NCI-H196 (ATCC, cat. CRL-5823, RRID:CVCL_1509), SW 1271 (ATCC, cat. CRL-2177, RRID:CVCL_1716) and NCI-H1876 (ATCC, cat. CRL-5902, RRID:CVCL_1503) small cell lung carcinomas, MDA-MB-231 (RRID:CVCL_0062) and MDA-MB-468 (RRID:CVCL_0419)breast carcinomas (10-12). Pooled donor human umbilical vein endothelial cells (HUVEC, Lonza, cat. CC-2519) and human mesenchymal stem cells (hMSC, Lonza, cat. PT-2501) were purchased from Lonza (Walkersville, MD).
Cell Culture. All cells were maintained in an incubator at 37 degrees C and 5% CO2 with 95% humidity. The PDC lines were cultured according to standard operating procedures established by the NCI PDMR (https://pdmr.cancer.gov). Briefly all PDCs were thawed and cultured in Matrigel-coated flasks prepared with a working solution of 1X Ham's F-12 nutrient mix, without supplementation (Invitrogen, Waltham, MA, cat. 11765054), 100 U/mL penicillin-streptomycin (Invitrogen, cat. 15140122), and 2.5% Matrigel (Corning Inc., Corning, NY, cat. 354248) for the first three passages. […]

Regarding `CC(C)CC(NC(=O)C(Cc1ccccc1)NC(=O)c1cnccn1)B(O)O` (stereo not drawn), the IC50 (commonly the point on the concentration scale where inhibition reaches its midpoint) is 8.4 nM and 6.94 nM. Also, the viability, T/C – broadly, the result in the treated group divided by that in the control group, in per cent – (compound 0.000316 µM) was 101% and 95.8%. In addition, the viability, T/C (compound 0.001 µM) was 108% and 93.7%. Moreover, under “compound 0.00316 µM”, the viability, T/C is 79.5% and 72.4%. For the same compound, the viability, T/C (compound 0.01 µM) was 44.7% and 39.4%. Moreover, the viability, T/C (compound 0.0316 µM) was 19.9% and 15.4%. In addition, under “compound 0.1 µM”, the viability, T/C was 10% and 7.18%.
Turning to `CC(C)CC(NC(=O)CNC(=O)c1cc(Cl)ccc1Cl)B1OC(=O)CC(CC(=O)O)(C(=O)O)O1` (stereo not drawn), the IC50 is above 100 nM. For the same compound, the viability, T/C (compound 0.000316 µM) was 94.7% and 103%. The viability, T/C (compound 0.001 µM) was 95.6% and 99.8%. Also, under “compound 0.00316 µM”, the viability, T/C is 92.1% and 95.9%. Moreover, the viability, T/C (compound 0.01 µM) was 80.1% and 77.8%. The viability, T/C (compound 0.0316 µM) is 85% and 71.1%. Also, for the setting “compound 0.1 µM”, the viability, T/C is 70.6% and 57.8%.
Turning to `CC1(C)CCC(CN2CCN(c3ccc(C(=O)NS(=O)(=O)c4ccc(NCC5CCOCC5)c([N+](=O)[O-])c4)c(Oc4cnc5[nH]ccc5c4)c3)CC2)=C(c2ccc(Cl)cc2)C1`, the IC50 was 7590 nM and 8360 nM. Moreover, the viability, T/C (compound 0.0316 µM) is 98% and 105%. For the same compound, under “compound 0.1 µM”, the viability, T/C is 101% and 98.1%. The viability, T/C (compound 0.316 µM) was 95.8% and 105%. Also, the viability, T/C (compound 1 µM) is 107% and 105%. Further, the viability, T/C (compound 3.16 µM) was 107% and 103%. For the same compound, under “compound 10 µM”, the viability, T/C was 33.7% and 40.2%.
Regarding `CC1COCCN1c1cc(-c2ccnn2C)c2ccnc(-c3ccn[nH]3)c2n1` (stereo not drawn), the IC50 was 54.5 nM and 35.5 nM. Further, the viability, T/C (compound 0.00316 µM) is 105% and 92.5%. Further, under “compound 0.01 µM”, the viability, T/C was 86.5% and 81.7%. Besides, for the setting “compound 0.0316 µM”, the viability, T/C was 58.9% and 50.4%. Where the note is “compound 0.1 µM”, the viability, T/C is 39.9% and 36.2%. For the same compound, the viability, T/C (compound 0.316 µM) was 34.4% and 32.6%. In addition, the viability, T/C (compound 1 µM) was 32.2% and 27%.
Turning to `CCN(c1cc(-c2ccc(CN3CCOCC3)cc2)cc(C(=O)NCc2c(C)cc(C)[nH]c2=O)c1C)C1CCOCC1`, the IC50 was above 3000 nM. The viability, T/C (compound 0.00949 µM) was 101% and 110%. In addition, the viability, T/C (compound 0.03 µM) was 102% and 107%. Besides, the viability, T/C (compound 0.0949 µM) was 104% and 103%. Moreover, the viability, T/C (compound 0.3 µM) was 102% and 97.2%. For the setting “compound 0.949 µM”, the viability, T/C is 98.4% and 103%. Moreover, the viability, T/C (compound 3 µM) is 100% and 109%.
`CC[C@@]1(O)C(=O)OCc2c1cc1n(c2=O)Cc2cc3c(CN(C)C)c(O)ccc3nc2-1`: the IC50 is 8.81 nM and 2.98 nM. Further, the viability, T/C (compound 0.000316 µM) is 102% and 99%. Also, for the setting “compound 0.001 µM”, the viability, T/C is 93% and 93.4%. In addition, the viability, T/C (compound 0.00316 µM) is 57% and 47.1%. Besides, where the note is “compound 0.01 µM”, the viability, T/C is 46.6% and 31.7%. Moreover, under “compound 0.0316 µM”, the viability, T/C is 47.1% and 34.3%. For the setting “compound 0.1 µM”, the viability, T/C was 24% and 18.9%.
In the case of `CCc1c2c(nc3ccc(O)cc13)-c1cc3c(c(=O)n1C2)COC(=O)[C@]3(O)CC`, the IC50 is below 0.949 nM. The viability, T/C (compound 0.000949 µM) is 39.2% and 30.3%. The viability, T/C (compound 0.003 µM) is 21.2% and 19.1%. Also, the viability, T/C (compound 0.00949 µM) was 8.48% and 7.2%. Moreover, the viability, T/C (compound 0.03 µM) is 3.26% and 2.51%. For the setting “compound 0.0949 µM”, the viability, T/C was 1.15% and 0.63%. For the same compound, for the setting “compound 0.3 µM”, the viability, T/C is 0.68% and 0.54%.
For the compound `COc1cc(C2c3cc4c(cc3C(OC3OC5COC(C)OC5C(O)C3O)C3COC(=O)C23)OCO4)cc(OC)c1O` (stereo not drawn), the IC50 was 718 nM and 501 nM. For the same compound, the viability, T/C (compound 0.00949 µM) was 108% and 107%. Further, the viability, T/C (compound 0.03 µM) was 110% and 94.7%. Besides, the viability, T/C (compound 0.0949 µM) is 101% and 84.4%. The viability, T/C (compound 0.3 µM) is 69.6% and 60.9%. For the same compound, the viability, T/C (compound 0.949 µM) is 44% and 35.2%. Moreover, the viability, T/C (compound 3 µM) was 39% and 33.6%.
On to `COc1cc(Nc2ncc3c(n2)-c2ccc(Cl)cc2C(c2c(F)cccc2OC)=NC3)ccc1C(=O)O`, for which the IC50 was > 1000 nM and 250 nM. Besides, where the note is “compound 0.00316 µM”, the viability, T/C was 94.1% and 95.2%. The viability, T/C (compound 0.01 µM) is 88.5% and 86.9%. The viability, T/C (compound 0.0316 µM) is 74.8% and 74.2%. Moreover, for the setting “compound 0.1 µM”, the viability, T/C was 59.8% and 52.2%. The viability, T/C (compound 0.316 µM) is 57% and 49%. Further, the viability, T/C (compound 1 µM) is 53.1% and 49.2%.
